Measurements published in patent US11013694B2, “Formulation of a micro drop pill and the preparation method thereof” (TASLY PHARMACEUTICAL GROUP CO., LTD., priority 2013, dated 2021).
Counter-ions that a name gives are not always drawn.

Experiments:
[1] = tested on: heart rate in rats with myocardial infarction; assay: Heart rate (ECG) in rats with myocardial infarction after ligation; assay type: in vivo, SD male rats; conditions: 7 d pre-administration
Source text: (§1) SD male rats, weighing 340˜360 g, were purchased from Beijing Weitonglihua Experimental Animal Co., Ltd, and certification No.: SCXK (Jing) 2007-0001.
(§2) Grouping: the rats were randomly divided into groups according to their body weight: S group (Sham operation group), M group (Model group), Y group (Positive control group, metoprolol tartrate, Lot No. 1201039), F group (CSMDP of the present invention) and G group (CSDP available in China, Lot No. 2011L16); 10 rats in each group.
On the 8th day, the rats were anesthetized intraperitoneally with 10% chloral hydrate (3 ml/kg) and fixed on a small wood plate in a supine position. Pins were inserted under the skin of the right forelimb and both hind limbs, and then the rats were connected with the MedLab-U/8c bio-signals collecting-processing system to record ECG of the rats. Hair on the front wall of the left chest was clipped. Oral tracheal cannula was performed and the animal respirator was connected at a respiratory frequency of 80 breaths/min, tidal volume 3 ml/100 g and I:E=1:1. Chest on the left front chest lateral side was incised to cut the 3′ rib and the pericardium was carefully lifted with forceps to tear apart. […] Medical suture (4-0) was used to transfix LAD and a small amount of myocardial tissue at a distance of about 1˜2 mm from the lower edge of the left atrial appendage and inside interventricular sulcus in the vicinity of the left main trunk of coronary vein. The rats with an elevated J point by 0.1 mV in ECG and pale LVAW (left ventricular anterior wall) indicated a successful modeling. Chest was closed layer by layer. The tracheal tube was removed until the voluntary respiration was recovered in the rats. ECG was recorded continuously for 4 hours.

[2] = tested on: acute myocardial infarction in rats; assay: Acute myocardial infarction in rats by coronary artery (LAD) ligature: myocardial infarction rate (MIR); assay type: in vivo, SD male rats; conditions: intragastric pre-administration 7 d (Y 4.5, G 115, F 84 mg/kg)
Source text: as §1, §2
On the 8th day, the rats were anesthetized intraperitoneally with 10% chloral hydrate (3 ml/kg) and fixed on a small wood plate in a supine position. Pins were inserted under the skin of the right forelimb and both hind limbs, and then the rats were connected with the MedLab-U/8c bio-signals collecting-processing system to record ECG of the rats. Hair on the front wall of the left chest was clipped. Oral tracheal cannula was performed and the animal respirator was connected at a respiratory frequency of 80 breaths/min, tidal volume 3 ml/100 g and I:E=1:1. Chest on the left front chest lateral side was incised to cut the 3′ rib and the pericardium was carefully lifted with forceps to tear apart. […] ECG was recorded continuously for 4 hours. […]

## COCCc1ccc(OCC(O)CNC(C)C)cc1 (stereo not drawn) [Y group, metoprolol tartrate]
[1]; 0 s after ligation
  heart rate: 377 ± 48 beat/min
[1]; 5 s after ligation
  heart rate: 423 ± 39 beat/min
[1]; 10 s after ligation
  heart rate: 419 ± 41 beat/min
[1]; 5 min after ligation
  heart rate: 424 ± 29 beat/min
[1]; 10 min after ligation
  heart rate: 431 ± 17 beat/min
[1]; 30 min after ligation
  heart rate: 413 ± 34 beat/min
[1]; 1 h after ligation
  heart rate: 421 ± 47 beat/min
[1]; 2 h after ligation
  heart rate: 416 ± 33 beat/min
[1]; 3 h after ligation
  heart rate: 380 ± 66 beat/min
[1]; 4 h after ligation
  heart rate: 395 ± 52 beat/min
[2]; LAD ligation on 8th day, heart taken after 4 h ECG
  Average wet weight of the infarction region: 0.0233 ± 0.0038 g
[2]; LAD ligation, model group 5.07 ± 0.75
  MIR (myocardial infarction rate = wet weight of the infarction region/wet weight of the whole heart x 100%): 2.65 ± 0.33 %
